Measured values from article PMC8673317 (Journal of medicinal chemistry, 2021).
Entries after “also recorded” stand apart in the source; their conditions may differ. Where a name gives a salt, the structure may show the parent alone.

Columns and labels:
[1] = tested on: 129Sv6 mice; assay: Radiant heat tail flick antinociception; assay type: in vivo, mouse; details: for antinociceptive activity in the tail-flick assay at doses as high as 100 mg/kg: alkaloid 2 po and sc, 9OH sc; for opioid receptor dependence of antinociception (MOR, DOR, KOR KO mice): 129Sv6 (and C57BL/6J) KO mice, KAE 100 mg/kg po in 129Sv6; for effect of naloxone on antinociception: naloxone 1 mg/kg sc 15 min before drug
[2] = target: T1, mKOR (Mus musculus, UniProt P33534); assay: [35S]GTPγS functional assay in membranes of transfected cells; details: relative to U50, 488H
T1 sequence (P33534 whole entry): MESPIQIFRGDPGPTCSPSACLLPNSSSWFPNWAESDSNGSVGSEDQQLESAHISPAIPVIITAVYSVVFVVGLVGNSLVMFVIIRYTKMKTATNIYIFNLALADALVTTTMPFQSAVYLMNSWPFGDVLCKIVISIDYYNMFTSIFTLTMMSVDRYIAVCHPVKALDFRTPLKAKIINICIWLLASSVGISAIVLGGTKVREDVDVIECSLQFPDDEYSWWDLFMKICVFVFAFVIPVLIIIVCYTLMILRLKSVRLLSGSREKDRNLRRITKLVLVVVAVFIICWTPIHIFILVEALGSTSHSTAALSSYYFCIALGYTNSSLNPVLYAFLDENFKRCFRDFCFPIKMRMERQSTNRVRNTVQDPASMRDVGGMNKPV

[3] = tested on: C57BL/6J mice; assay: Lethality; assay type: in vivo, mouse
[4] = tested on: MOR KO mice; assay: Lethality; assay type: in vivo, mouse
[5] = tested on: 318 non-olfactory GPCRs (opioid receptors); assay: PRESTO-Tango GPCRome β-arrestin2 recruitment screen; assay type: cell-based, human; details: 10 μM
[6] = target: T2, BB3 (Homo sapiens, UniProt P32247); assay: PRESTO-Tango concentration-response; assay type: cell-based
T2 sequence (P32247 1-399): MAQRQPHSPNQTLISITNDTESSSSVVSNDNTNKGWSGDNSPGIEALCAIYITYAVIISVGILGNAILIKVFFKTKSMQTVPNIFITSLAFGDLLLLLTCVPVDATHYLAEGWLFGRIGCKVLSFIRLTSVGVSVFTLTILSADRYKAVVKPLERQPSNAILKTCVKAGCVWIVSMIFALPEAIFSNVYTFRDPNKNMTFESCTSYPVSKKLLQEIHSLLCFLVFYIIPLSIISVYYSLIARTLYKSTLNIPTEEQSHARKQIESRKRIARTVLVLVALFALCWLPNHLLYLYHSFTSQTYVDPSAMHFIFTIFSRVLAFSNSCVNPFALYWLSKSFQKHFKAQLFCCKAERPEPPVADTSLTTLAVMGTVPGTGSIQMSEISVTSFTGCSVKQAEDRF

[7] = target: CXCR7 (Homo sapiens, UniProt P25106); assay: PRESTO-Tango concentration-response; assay type: cell-based
CXCR7, sequence (P25106 whole entry): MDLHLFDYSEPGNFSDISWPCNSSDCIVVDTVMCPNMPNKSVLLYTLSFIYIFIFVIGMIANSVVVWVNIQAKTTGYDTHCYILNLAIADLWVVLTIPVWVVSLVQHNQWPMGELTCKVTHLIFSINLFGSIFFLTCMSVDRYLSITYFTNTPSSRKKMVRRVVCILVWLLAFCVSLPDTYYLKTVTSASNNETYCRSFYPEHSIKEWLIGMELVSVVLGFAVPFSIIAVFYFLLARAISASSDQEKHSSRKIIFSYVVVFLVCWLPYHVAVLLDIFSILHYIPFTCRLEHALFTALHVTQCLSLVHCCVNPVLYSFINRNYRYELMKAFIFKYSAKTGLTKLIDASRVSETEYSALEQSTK

[8] = target: T3, CCR3 (Homo sapiens, UniProt P51677); assay: PRESTO-Tango concentration-response; assay type: cell-based
T3 sequence (P51677 1-355): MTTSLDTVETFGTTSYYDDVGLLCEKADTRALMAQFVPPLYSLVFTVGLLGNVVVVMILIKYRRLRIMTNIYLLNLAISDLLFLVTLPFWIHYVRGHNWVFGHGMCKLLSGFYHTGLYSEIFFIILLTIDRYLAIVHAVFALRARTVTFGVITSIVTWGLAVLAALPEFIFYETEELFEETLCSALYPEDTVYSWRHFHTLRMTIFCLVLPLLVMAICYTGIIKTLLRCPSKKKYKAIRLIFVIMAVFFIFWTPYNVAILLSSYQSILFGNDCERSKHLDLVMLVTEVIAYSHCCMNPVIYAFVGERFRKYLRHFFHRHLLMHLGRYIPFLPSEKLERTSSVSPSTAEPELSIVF

[9] = target: T4, mMOR (Mus musculus, UniProt P42866); assay: [35S]GTPγS functional assay in membranes of transfected cells; details: read-out: [35S]GTPγS mMOR %Emax
T4 sequence (P42866 whole entry): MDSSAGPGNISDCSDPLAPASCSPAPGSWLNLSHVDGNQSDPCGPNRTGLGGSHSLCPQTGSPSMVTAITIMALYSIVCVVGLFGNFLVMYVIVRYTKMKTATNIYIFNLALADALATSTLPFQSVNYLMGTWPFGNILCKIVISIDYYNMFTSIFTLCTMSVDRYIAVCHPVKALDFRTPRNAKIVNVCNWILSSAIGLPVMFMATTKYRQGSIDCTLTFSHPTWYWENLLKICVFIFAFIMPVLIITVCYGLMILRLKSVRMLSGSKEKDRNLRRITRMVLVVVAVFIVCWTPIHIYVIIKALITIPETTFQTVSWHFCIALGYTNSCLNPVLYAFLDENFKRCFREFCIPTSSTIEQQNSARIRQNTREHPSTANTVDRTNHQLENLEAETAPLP

[10] = target: mDOR (Mus musculus, UniProt P32300); assay: as above; details: antagonism of 100 nM agonist
mDOR, sequence (P32300 whole entry): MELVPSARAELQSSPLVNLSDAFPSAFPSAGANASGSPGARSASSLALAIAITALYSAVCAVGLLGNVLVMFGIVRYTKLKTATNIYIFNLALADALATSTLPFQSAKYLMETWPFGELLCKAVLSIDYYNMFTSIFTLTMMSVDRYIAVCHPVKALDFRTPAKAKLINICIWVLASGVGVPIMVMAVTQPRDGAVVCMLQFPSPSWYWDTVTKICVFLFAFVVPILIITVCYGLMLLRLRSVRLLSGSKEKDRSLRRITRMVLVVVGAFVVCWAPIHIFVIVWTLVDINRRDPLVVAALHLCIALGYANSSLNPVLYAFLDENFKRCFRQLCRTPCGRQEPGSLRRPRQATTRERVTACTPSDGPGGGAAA

[11] = tested on: C57BL/6J mice; assay: 55 °C warm-water tail-withdrawal; assay type: in vivo, mouse
[12] = tested on: MOR KO mice; assay: Antagonism of icv KOR/DOR agonist antinociception; assay type: in vivo, mouse; details: MP 30 mg/kg sc
[13] = target: T4, mMOR; details: read-out: [35S]GTPγS mMOR EC50; agonist stimulation, ± SEM; cited from earlier work
[14] = target: T1, mKOR; details: agonist stimulation, ± SEM; cited from earlier work
[15] = tested on: C57BL/6J mice; details: MP 0.76, 1.5, 4 mg/kg sc; Figure 2L reprinted; listed as MP; cited from earlier work
[16] = Pharmacokinetic study, plasma and brain levels by LC-MS/MS
[17] = tested on: CD1 mice; details: cited from earlier work
[18] = tested on: humans; details: cited from earlier work
[19] = tested on: C57BL/6J mice; assay: Conditioned place preference and aversion; assay type: in vivo, mouse; details: alkaloid extract 100 mg/kg/d po, mitragynine 30 mg/kg/d po, 7OH 1 mg/kg/d sc
[20] = tested on: C57BL/6J mice; assay: Locomotor; assay type: in vivo, mouse; details: KAE 45 mg/kg po, mitragynine 20 mg/kg po, 7OH 1 mg/kg sc, MP […] sc
[21] = Lethality; assay type: in vivo, mouse; details: 129Sv6, mouse, in vivo, po
[22] = tested on: 129Sv6 mice; assay: Lethality; assay type: in vivo, mouse; details: from rodent oral LD50
[23] = Stability in pH 7.4 buffer; assay type: physicochemical
[24] = pH 7.4
[25] = tested on: mice; details: po; cited from earlier work
[26] = tested on: rats; details: intravenous (iv) route; cited from earlier work
[27] = Pharmacokinetic study, plasma and brain levels by LC-MS/MS; remark: listed apart in the source
[28] = C57BL/6J, mitragynine 30 mg/kg po

## CC[C@H]1CN2CCc3c([nH]c4cccc(OC)c34)[C@@H]2C[C@@H]1/C(=C\OC)C(=O)OC [speciogynine]
[1]; 129Sv6 mice
  antinociceptive activity in the tail-flick assay at doses as high as 100 mg/kg: inactive
[2]
  [35S]GTPγS mKOR %Emax: no activity

## CC[C@@H]1C[N+]2=C(C[C@@H]1/C(=C\OC)C(=O)OC)c1[nH]c3cccc(OC)c3c1CC2 [3-dehydromitragynine, (2S,3S)-2-((E)-1,3-Dimethoxy-3-oxoprop-1-en-2-yl)-3-ethyl-8-methoxy-2,3,4,6,7,12-hexahydro-1H-indolo[2,3-a]quinolizin-5-ium TFA Salt]
[1]; administered directly
  antinociception in mice (in words): not antinociceptive
[3]; 50 mg/kg, sc
  lethality: 100%
[3]; 3DM 50 mg/kg sc, norBNI 10 mg/kg sc 24 h, NTI 20 mg/kg sc 15 min pretreatment
  lethality in the presence of KOR antagonist (nor-BNI) and DOR antagonist (NTI): lethality was still observed
[4]; 50 mg/kg, sc
  lethality: 100%
[5]
  increase in luminescence signal, fold of basal, at opioid receptors: > 3 fold of basal
[5]; Table 1 and Figure 6B
  off-target activity (in words): no other notable off–target activity beyond opioid receptors
[6]
  activity at BB3 (in words): Poor (μM) activity
[7]
  activity at CXCR7 (in words): Poor (μM) activity
[8]
  activity at CCR3 (in words): Poor (μM) activity
[9]
  Emax: 44 ± 1%

## CC[C@@H]1CN2CCc3c([nH]c4cccc(O)c34)[C@@H]2C[C@@H]1/C(=C\OC)C(=O)OC [9-hydroxy corynanthedine, 9-hydroxycorynantheidine]
[10]
  [35S]GTPγS mDOR IC50: no activity

## CC[C@@H]1CN2CC[C@]3(Nc4cccc(OC)c4C3=O)[C@@H]2C[C@@H]1/C(=C\OC)C(=O)OC [mitragynine pseudoindoxyl]
[1]
  opioid receptor dependence of antinociception (MOR, DOR, KOR KO mice): mediated through MOR, independent of DOR/KOR
  effect of naloxone on antinociception: naloxone-sensitive
[1]; 129Sv6 mice, sc
  more antinociceptive potency than mitragynine (sc): > 100 fold
[11]; C57BL/6J, sc
  antinociceptive potency over sc morphine: about 10 fold
[11]; Mus musculus, sc, read-out: antinociceptive ED50 (95% CI), sc
  ED50: 0.26 mg/kg
[11]; sc, C57BL/6J and 129Sv6 strains
  antinociceptive potency relative to morphine: 2–10 fold
[12]; SNC 80 100 nmol icv
  antagonism of icv SNC 80 antinociception: antagonized
[12]; U50, 488H 100 nmol icv
  antagonism of icv U50, 488H antinociception: antagonized
[13]
  EC50: 1.66 ± 0.1 nM
[14]
  [35S]GTPγS mKOR EC50: no activity
[15]
  inhibition of GI transit (in words): showed constipation at all doses
[16]; [28]
  level in plasma and brain at 8 h: no quantifiable
[16]; C57BL/6J, mouse, plasma, sc
  concentration at 20 min: 0.41 ± 0.12 µM

## CN1CC[C@]23c4c5ccc(O)c4O[C@H]2[C@@H](O)C=C[C@H]3[C@H]1C5 [morphine]
[1]; 129Sv6 mice, po, at peak effect
  antinociceptive ED50 (95% CI), po: 3.32 (2.08–5.32) mg/kg
[17]
  antinociceptive ED50: 5 mg/kg
[18]
  potency intravenously versus orally: ~ 3 fold

## CC[C@@H]1CN2CCc3c([nH]c4cccc(OC)c34)[C@@H]2C[C@@H]1/C(=C\OC)C(=O)OC [mitragynine]
[1]
  opioid receptor dependence of antinociception (MOR, DOR, KOR KO mice): mediated by MOR (but not DOR and KOR)
  effect of naloxone on antinociception: reversed
[11]; both strains (C57BL/6J, 129Sv6), po and sc
  time to peak antinociceptive effect: 15 to 20 min
[19]
  conditioned place preference (CPP/CPA): displayed CPP; also recorded: produced reward behavior
[20]
  hyperlocomotion compared to morphine: attenuated
[21]
  LD50: 750 mg/kg
[22]
  oral LD50 corrected by standard allometric scaling, amount in an adult human: > 2.5 g
[3]; 1 g/kg, po, data not shown
  lethality: 100%
[4]; 1 g/kg po, C57BL/6J or MOR KO mice
  lethality (in words): death of all animals
[23]; 1H NMR at 1, 5, 10, 24 h, room temperature
  stability in D2O: stable
[23]; LC/MS at 1, 5, 10 and 24 h
  stability in pH 7.4 buffer: very stable
[24]
  increase of half-life in microsomes in the presence of ketoconazole: ~ 5 fold
[14]
  [35S]GTPγS mKOR EC50: no activity
[25]
  reported LD50: 477 mg/kg
[26]
  self-administration: not self-administered
[16]; [28]
  level in plasma and brain at 24 h: below detection limits
[16]; C57BL/6J, po, ED80 dose (30 mg/kg)
  brain concentration of intact mitragynine: 6.63 ± 0.67 µM
[16]; C57BL/6J, sc 30 mg/kg
  brain concentration: 9.74 ± 3.05 µM
[16]; po ED80 dose, C57BL/6J and 129Sv6
  brain concentration greater than MOR agonist potency: 30-to-60 fold
[27]; 129Sv6, po, ED80 dose (10 mg/kg)
  brain concentration of intact mitragynine: 12.22 ± 3.4 µM
[27]; 129Sv6, sc 10 mg/kg
  brain concentration: 30.06 ± 8.12 µM

## CC[C@@H]1CN2CCc3c([nH]c4cccc(O[C@@H]5O[C@H](C(=O)O)[C@@H](O)[C@H](O)[C@H]5O)c34)[C@@H]2C[C@@H]1/C(=C\OC)C(=O)OC [9-glucuronoyl mitragynine, (2S,3S,5R,6S)-6-(((2S,3S)-2-((E)-1,3-Dimethoxy-3-oxoprop-1-en-2-yl)-3-ethyl-1,2,3,4,6,7,12,12b-octahydroindolo[2,3-a]quinolizin-8-yl)oxy)-3,4,5-trihydroxytetrahydro-2H-pyran-2-carboxylic Acid]
[10]
  [35S]GTPγS mDOR IC50: no activity

## C=C[C@H]1CN2CCc3c([nH]c4cccc(OC)c34)[C@@H]2C[C@@H]1/C(=C\OC)C(=O)OC [paynanthine, paynantheine]
[1]; 129Sv6 mice
  antinociceptive activity in the tail-flick assay at doses as high as 100 mg/kg: inactive
